A value given as a limit tells only on which side of the number the result lay.

Usually DC50 stands for the midpoint of the concentration-degradation curve.

The target in one experiment is T1, BTK (Homo sapiens, UniProt Q06187).
T1 construct: immunofluorescence degradation readout, 48 h
In words: BTK IFA Assay (BTK degradation in OCI-Ly10 cells). It is filed as cell-based. The conditions noted are these: BTK degradation in OCI-Ly10 cells at 48-hour timepoint. As to the method:
The purpose of the BTK Assays were to assess the binding affinity of the dimer to BTK and subsequent protein degradation.
OCI-Ly10 cells were obtained from CoBioer Biosciences Co. Ltd, Shanghai, China, and maintained in IMDM (Invitrogen™, Waltham, MA) supplemented with 20% FBS (AusGeneX, Molendinar, Australia) and 1%, penicillin/streptomycin (Invitrogen™, Waltham, MA) in a humidified incubator at 5% CO2, 37° C.
Compounds were dissolved in DMSO (10 mM), serially diluted from 10 mM to 1.5 nM, and pre-incubated for 2 hours. Exponentially growing cells were seeded at 8×10^3 cells per well of 384 well plate (Corning, New York #356663). Cells were treated with compound for 48 hours. Following treatment, cells were fixed with 4% PFA (SolarBio Lifescience, Beijing, China) for 20 minutes, permeabilised in 100% ice-cold methanol (Merck, Darmstadt, Germany) for 10 minutes, and blocked with blocking buffer (LI-COR Biosciences Lincoln, NE) for 90 minutes.
Cells were incubated with primary BTK antibody (CST #8547 Danvers, MA) at 1:1000 dilution overnight in blocking buffer (LI-COR, Lincoln, NE) at 4° C. Cells were washed in DPBS (Thermo Fisher Scientific, Waltham, MA) and incubated with secondary antibody AlexaFluor 488 goat anti rabbit (Invitrogen™ #A-11008 Waltham, MA) 1:1000 dilution, with Hoechst stain (Invitrogen™ Waltham, MA) 1:5000 dilution in blocking buffer (LI-COR Biosciences, Lincoln, NE) for 90 minutes. After final DPBS wash, 200 ul of DPBS was added to the cells, and signal read on Operetta (Revvity, Waltham, MA). Each data point was performed in duplicate for every experiment. A DC50 value was calculated from linear regression analysis of the plots.

The next experiment concerns the target T2, BRD4 (Homo sapiens, UniProt O60885).
T2 construct: Flp-In LgBiT HEK293 cells; lytic luminescence degradation readout
In words: BRD4 HiBiT Assay (degradation of endogenous BRD4 in HiBiT knock-in Flp-In LgBiT HEK293 cells). It is filed as cell-based. The text has this:
The purpose of the BRD4 HiBiT Assay was to assess the binding affinity of the dimer to BRD4 and subsequent protein degradation.
BRD4 HiBiT cells (Flp-In™ LgBiT and KI HiBiT) were generated by first creating a Flp-In™293 stable cell line, transfecting in the pFRT serial vector containing an integrated Flp recombination target (FRT) site (Thermo Fisher Scientific, Waltham, MA) to HEK293 cells (ATCC, Manassas, VA). The LgBiT expression sequence (Promega Corporation, Madison, WA) was then introduced into the genome via Flp recombinase-mediated DNA recombination at the FRT site. HiBiT sequence (Promega Corporation, Madison, WA) was then knocked in to the endogenous BRD4 protein in the Flp-In™ LgBiT HEK293 cells and successful clones verifying by sequencing. Work on BRD4 HiBiT cell line was performed under license from Promega Corporation (Madison, WA). Cells were maintained in DMEM (Invitrogen™, Waltham, MA) supplemented with 10% FBS (AusGeneX, Molendinar, Australia) and 1% penicillin/streptomycin (Invitrogen™, Waltham, MA) in a humidified incubator at 5% CO2, 37° C.
Compounds were dissolved in DMSO (10 mM), serially diluted from 10 mM to 1.5 nM, and pre-incubated for 2 hours. Exponentially growing cells were seeded at 1×10^4 cells per well of 384 well plate (Corning, New York #3570). Cells were treated with compound for 6 or 48 hours. Following treatment, Nano-Glo® HiBiT Lytic Detection reagent (Promega Corporation, Madison, WA) was added according to manufacturer's instructions, and signal read using BMG CLARIOstar plate reader (BMG Labtech, Ortenburg, Germany). Each data point was performed in duplicate for every experiment. A DC50 value was calculated from linear regression analysis of the plots.

T1 sequence (Q06187 whole entry): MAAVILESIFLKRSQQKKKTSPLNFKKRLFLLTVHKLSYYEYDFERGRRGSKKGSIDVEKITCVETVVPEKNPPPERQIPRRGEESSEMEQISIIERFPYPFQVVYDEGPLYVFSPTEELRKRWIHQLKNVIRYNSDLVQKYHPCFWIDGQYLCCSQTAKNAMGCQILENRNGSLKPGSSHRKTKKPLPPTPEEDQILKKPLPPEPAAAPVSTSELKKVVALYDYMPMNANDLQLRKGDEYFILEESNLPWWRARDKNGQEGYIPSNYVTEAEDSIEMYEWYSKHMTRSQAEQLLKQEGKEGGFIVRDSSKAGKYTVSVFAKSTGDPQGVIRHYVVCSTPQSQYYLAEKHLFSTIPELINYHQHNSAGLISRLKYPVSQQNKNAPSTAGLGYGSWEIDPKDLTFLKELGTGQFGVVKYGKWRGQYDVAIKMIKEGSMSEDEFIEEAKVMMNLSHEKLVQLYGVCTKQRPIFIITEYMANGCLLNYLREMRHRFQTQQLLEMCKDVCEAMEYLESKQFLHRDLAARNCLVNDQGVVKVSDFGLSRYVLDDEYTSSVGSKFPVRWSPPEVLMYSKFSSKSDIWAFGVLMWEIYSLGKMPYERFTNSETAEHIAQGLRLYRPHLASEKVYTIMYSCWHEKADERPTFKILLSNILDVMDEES

Molecule `Cc1cc(C(=O)NCCC#Cc2cccc3c2CN(C2CCC(=O)NC2=O)C3=O)ccc1B1O[C@H]2C[C@H]3C[C@H](C3(C)C)[C@@]2(CCOCCN2CCC(n3nc(-c4ccc(Oc5ccccc5)cc4)c4c(N)ncnc43)CC2)O1` (mixture of isomers) [Example 15, 4-((3aR,4R,6R,7aS)-3a-(2-(2-(4-(4-amino-3-(4-phenoxyphenyl)-1H-pyrazolo[3,4-d]pyrimidin-1-yl)piperidin-1-yl)ethoxy)ethyl)-5,5-dimethylhexahydro-4,6-methanobenzo[d][1,3,2]dioxaborol-2-yl)-N-(4-(2-(2,6-dioxopiperidin-3-yl)-1-oxoisoindolin-4-yl)but-3-yn-1-yl)-3-methylbenzamide] yielded a DC50 at BTK of 100 to 500 nM.

As to `Cc1cc(C(=O)N(C)CCCOc2ccc3c(c2)n(C)c(=O)n3C2CCC(=O)NC2=O)ccc1B1O[C@H]2C[C@H]3C[C@H](C3(C)C)[C@@]2(CCOCC(=O)N2CCC(n3nc(-c4ccc(Oc5ccccc5)cc4)c4c(N)ncnc43)CC2)O1` (mixture of isomers) [Example 16, 4-((3aR,4R,6R,7aS)-3a-(2-(2-(4-(4-amino-3-(4-phenoxyphenyl)-1H-pyrazolo[3,4-d]pyrimidin-1-yl)piperidin-1-yl)-2-oxoethoxy)ethyl)-5,5-dimethylhexahydro-4,6-methanobenzo[d][1,3,2]dioxaborol-2-yl)-N-(3-((1-(2,6-dioxopiperidin-3-yl)-3-methyl-2-oxo-2,3-dihydro-1H-benzo[d]imidazol-5-yl)oxy)propyl)-N,3-dimethylbenzamide], on BTK, the DC50 was in the range of 500 to 1000 nM. Regarding `Cc1cc(C(=O)NCCC#Cc2cccc3c2CN(C2CCC(=O)NC2=O)C3=O)ccc1B1O[C@H]2C[C@H]3C[C@H](C3(C)C)[C@@]2(CCOCC(=O)N2CCC(n3nc(-c4ccc(Oc5ccccc5)cc4)c4c(N)ncnc43)CC2)O1` (mixture of isomers) [Example 17, 4-((3aR,4R,6R,7aS)-3a-(2-(2-(4-(4-amino-3-(4-phenoxyphenyl)-1H-pyrazolo[3,4-d]pyrimidin-1-yl)piperidin-1-yl)-2-oxoethoxy)ethyl)-5,5-dimethylhexahydro-4,6-methanobenzo[d][1,3,2]dioxaborol-2-yl)-N-(4-(2-(2,6-dioxopiperidin-3-yl)-1-oxoisoindolin-4-yl)but-3-yn-1-yl)-3-methylbenzamide], on BTK, the DC50 was 100 to 500 nM. For the molecule `Cc1ccc(C(=O)N(C)CCCOc2cccc3c2CN(C2CCC(=O)NC2=O)C3=O)cc1B1O[C@H]2C[C@H]3C[C@H](C3(C)C)[C@@]2(CCOCC(=O)N2CCC(n3nc(-c4ccc(Oc5ccccc5)cc4)c4c(N)ncnc43)CC2)O1` (mixture of isomers) [Example 19, 3-((3aR,4R,6R,7aS)-3a-(2-(2-(4-(4-amino-3-(4-phenoxyphenyl)-1H-pyrazolo[3,4-d]pyrimidin-1-yl)piperidin-1-yl)-2-oxoethoxy)ethyl)-5,5-dimethylhexahydro-4,6-methanobenzo[d][1,3,2]dioxaborol-2-yl)-N-(3-((2-(2,6-dioxopiperidin-3-yl)-1-oxoisoindolin-4-yl)oxy)propyl)-N,4-dimethylbenzamide], the DC50 on BTK lay in the range of 500 to 1000 nM. At BTK, `Cc1cc(C(=O)N(C)CCOc2cccc3c2CN(C2CCC(=O)NC2=O)C3=O)ccc1B1O[C@H]2C[C@H]3C[C@H](C3(C)C)[C@@]2(CCOCC(=O)N2CCC(n3nc(-c4ccc(Oc5ccccc5)cc4)c4c(N)ncnc43)CC2)O1` (mixture of isomers) [Example 20, 4-((3aR,4R,6R,7aS)-3a-(2-(2-(4-(4-amino-3-(4-phenoxyphenyl)-1H-pyrazolo[3,4-d]pyrimidin-1-yl)piperidin-1-yl)-2-oxoethoxy)ethyl)-5,5-dimethylhexahydro-4,6-methanobenzo[d][1,3,2]dioxaborol-2-yl)-N-(2-((2-(2,6-dioxopiperidin-3-yl)-1-oxoisoindolin-4-yl)oxy)ethyl)-N,3-dimethylbenzamide] returned a DC50 of 1000 to 10000 nM.

In the case of `Cc1sc2c(c1C)C(c1ccc(Cl)cc1)=N[C@@H](CC(=O)NCCC[C@@]13OB(c4ccccc4CCC4CN(c5ccc(N6CCC(=O)NC6=O)cc5)C4)O[C@@H]1C[C@@H]1C[C@H]3C1(C)C)c1nnc(C)n1-2` [Example 8, 2-((S)-4-(4-chlorophenyl)-2,3,9-trimethyl-6H-thieno[3,2-f][1,2,4]triazolo[4,3-a][1,4]diazepin-6-yl)-N-(3-((3aS,4S,6S,7aR)-2-(2-(2-(1-(4-(2,4-dioxotetrahydropyrimidin-1(2H)-yl)phenyl)azetidin-3-yl)ethyl)phenyl)-5,5-dimethyltetrahydro-4,6-methanobenzo[d][1,3,2]dioxaborol-3a(4H)-yl)propyl)acetamide], the DC50 at BRD4 (BRD4 degradation in cells at 6-hour timepoint) was under 100 nM. Take `Cc1cc([C@H](C(=O)N2C[C@H](O)C[C@H]2C(=O)NCc2ccc(Cl)cc2OCCCB2O[C@H]3C[C@H]4C[C@H](C4(C)C)[C@@]3(CCNC(=O)C[C@@H]3N=C(c4ccc(Cl)cc4)c4c(sc(C)c4C)-n4c(C)nnc43)O2)C(C)C)on1` [Example 12, (2S,4R)—N-(4-chloro-2-(3-((3aR,4R,6R,7aS)-3a-(2-(2-((S)-4-(4-chlorophenyl)-2,3,9-trimethyl-6H-thieno[3,2-f][1,2,4]triazolo[4,3-a][1,4]diazepin-6-yl)acetamido)ethyl)-5,5-dimethylhexahydro-4,6-methanobenzo[d][1,3,2]dioxaborol-2-yl)propoxy)benzyl)-4-hydroxy-1-((R)-3-methyl-2-(3-methylisoxazol-5-yl)butanoyl)pyrrolidine-2-carboxamide]: on BRD4 (BRD4 degradation in cells at 48-hour timepoint), the DC50 lay within 1000 to 10000 nM. On to `Cc1cc(C(=O)N(C)CCCOc2ccc3c(c2)n(C)c(=O)n3C2CCC(=O)NC2=O)ccc1B1O[C@H]2C[C@H]3C[C@H](C3(C)C)[C@@]2(CCOCCN2CCC(n3nc(-c4ccc(Oc5ccccc5)cc4)c4c(N)ncnc43)CC2)O1` (stereo partly drawn) [Example 14, 4-((3aR,4R,6R,7aS)-3a-(2-(2-(4-(4-amino-3-(4-phenoxyphenyl)-1H-pyrazolo[3,4-d]pyrimidin-1-yl)piperidin-1-yl)ethoxy)ethyl)-5,5-dimethylhexahydro-4,6-methanobenzo[d][1,3,2]dioxaborol-2-yl)-N-(3-((1-(2,6-dioxopiperidin-3-yl)-3-methyl-2-oxo-2,3-dihydro-1H-benzo[d]imidazol-5-yl)oxy)propyl)-N,3-dimethylbenzamide], for which the DC50 on BTK was in the range of 100 to 500 nM. Consider `Cc1cc(C(=O)N(C)CCCOc2cccc3c2CN(C2CCC(=O)NC2=O)C3=O)ccc1B1O[C@H]2C[C@H]3C[C@H](C3(C)C)[C@@]2(CCOCC(=O)N2CCC(n3nc(-c4ccc(Oc5ccccc5)cc4)c4c(N)ncnc43)CC2)O1` (stereo partly drawn) [Example 18, 4-((3aR,4R,6R,7aS)-3a-(2-(2-(4-(4-amino-3-(4-phenoxyphenyl)-1H-pyrazolo[3,4-d]pyrimidin-1-yl)piperidin-1-yl)-2-oxoethoxy)ethyl)-5,5-dimethylhexahydro-4,6-methanobenzo[d][1,3,2]dioxaborol-2-yl)-N-(3-((2-(2,6-dioxopiperidin-3-yl)-1-oxoisoindolin-4-yl)oxy)propyl)-N,3-dimethylbenzamide], for which the DC50 on BTK lay within 500 to 1000 nM.
